Results: PMC7927021 (Toxins, 2021)
“And” between values parts separate entries of the source, which are not always exact repeats. Equal entries are not always repeated.

Tests used:
Caco-2 cells [1] = format: cell-based, human
Caco-2 cells [2] = format: cell-based, human; remark: listed apart in the source
[3] = parameters: method as in PMID 21699062; settings: established by JECFA in 2011; cited from earlier work

| Structure (SMILES) | Concentration range in which viability was significantly/sharply reduced (Caco-2 cells [1]) | Concentration range of robust decrease in cell viability (Caco-2 cells [1]) | Number of KEGG pathways in which DEGs were enriched (Caco-2 cells [2]) | Number of differentially expressed genes (DEGs) (Caco-2 cells [2]) | PMTDI (Provisional Maximum Tolerable Daily Intake) [3] | IC50 (Caco-2 cells [1]) |
| --- | --- | --- | --- | --- | --- | --- |
| CC1=C[C@H]2O[C@@H]3[C@H](O)C[C@](C)([C@@]2(CO)[C@H](O)C1=O)[C@]31CO1 [DON, Deoxynivalenol] | 0.2 to 10 µM | 0.2 to 10 µM | 27 | 2656 | 1 μg/kg bw per day |  |
| CC(=O)O[C@@H]1C[C@]2(C)[C@@]3(CO)[C@H](O)C(=O)C(C)=C[C@H]3O[C@H]1[C@@]21CO1 [3-ADON, trichothec-9-en-8-one, 3-(acetyloxy)-12,13-epoxy-7,15-dihydroxy-, (3α,7α)] | 1 to 10 µM | 2 to 10 µM | 42 | 3132 |  | 13.2 µM and 10.8 µM and 7.84 µM |
| CC(=O)OC[C@]12[C@H](O)C(=O)C(C)=C[C@H]1O[C@@H]1[C@H](O)C[C@@]2(C)[C@]12CO2 [15-ADON, trichothec-9-en-8-one, 15-(acetyloxy)-12,13-epoxy-3,7-dihydroxy-, (3α,7α)] | 0.2 to 10 µM | 0.5 to 10 µM | 28 | 2425 |  |  |
